From patent US20100003217A1, “Compounds and Pharmaceutical Compositions for the Treatment of Viral Infections” (priority 2008, published 2010)
“And” between values parts separate entries of the source, which are not always exact repeats. Equal entries are not always repeated.

Tested on: rat primary hepatocytes
Assay: Metabolic disposition of [^14C]-Compound 1 and [^14C]-2′-C-methyl guanosine in rat primary hepatocytes (incubation medium, cellular extracts, nucleotide levels)
Format: in vitro ADME, Sprague Dawley rat
Procedure: Primary hepatocytes: Freshly isolated cells from animal and human liver were obtained in suspension on ice. Cells were pelleted by centrifugation at 70-75×g (rat) or 95-90×g (monkey and human) and resuspended at 0.8 million cells per mL of platting medium (William's E supplemented with 5% FBS, 0.5% penicillin-streptomycin, 1% L-glutamine, 4 μg/mL insulin and 1 μM dexamethasone). Multi-well collagen I-coated plates (rat tail collagen type I; 12- or 6-well) were then seeded by addition of 1 mL (12-well; 0.8 million cells/well) or 2 mL (6-well; 1.6 million cells/well) of cell suspension. The plates were gently shaken to evenly distribute the cells and placed in an incubator at 37° C. for approximately 4 to 6 hours to allow cells to attach. Once cells were attached, the platting medium was removed and replaced with hepatocyte culture medium (William's E supplemented with penicillin-streptomycin, 1% L-glutamine, 1% insulin-transferrin-selenium and 0.1 μM dexamethasone). Cells were left overnight in an incubator at 37° C. to acclimatize to culture and the medium.
Hepatocyte incubations with radiolabeled Compound 1 and 2′-C-methyl guanosine, both labeled in the C-8 position of the guanine moiety, were conducted at a final volume of 2.0 mL hepatocyte culture medium/well ([…]). Culture medium from overnight incubation of cells was removed and replaced with fresh medium, pre-warmed to 37° C., containing 1 or 10 μM [^14C]-Compound 1 ([…]) or [^14C]-2′-C-methyl guanosine (127 DPM/μmol) from a stock solution in DMSO (final DMSO concentration was 0.1%) or 50% ethanol (final ethanol concentration was 0.2%). After 1, 4, 8 and 24 hours, 0.5-1.0 mL of incubation medium was removed and stored at −20° C. until analysis (described below). The remaining medium was discarded and cell monolayers were carefully washed two times with ice-cold PBS. Following the last wash, all PBS was carefully removed and 1.0 mL of extraction solution (ice-cold 70% methanol) added. Cells were scrapped off and suspended in the extraction solution, transferred to 2 mL polypropylene microfuge tubes and intracellular contents extracted overnight at −20° C.
Preliminary identification of putative metabolites was conducted by comparing the retention time of observed metabolites in incubation medium and cellular extracts with retention times obtained with chemically synthesized standards using the chromatography conditions described below. Further identification of 2′-C-methyl guanosine nucleotides (mono-, di- and triphosphate) was carried out by incubating cellular extract samples with alkaline phosphatase (10 units for 60 min at 37° C.) and comparing the HPLC retention times of the resulting nucleosides with that of authentic 2′-C-methyl guanosine.
Cellular extracts were prepared by centrifugation at 16,000 RCF using an Eppendorf microcentrifuge (Eppendorf, Model 5415D) for 10 min to remove cellular debris. An aliquot of 5-10 μL of the supernatant was added to 5 mL of EcoLite™ (MP, Irvine, Calif.) liquid scintillation cocktail and radioactivity measured by liquid scintillation counting (LSC) using a Beckman Coulter LS6500 multipurpose liquid scintillation counter (Beckman Instruments, Fullerton, Calif.). The remaining sample was then dried using a Labconco refrigerated centrivap concentrator (Labconco, Kansas City, Mo.). Dry extracts were reconstituted in 120 μL of HPLC-grade water and centrifuged at 16,000 RCF using an Eppendorf microcentrifuge for 10 min. Prior to HPLC analysis (described below), radioactivity of the concentrated extracts was measured by LSC using 5 μL aliquots. Extraction recovery was then determined by comparing total radioactivity in extracts before and after drying. The remaining extract was then analyzed by HPLC with online radioactivity detection using a Flow Scintillation Analyzer Radiomatic™ 515TR. Radioactivity in the separated components was quantified by integrating the peaks using Flo-One™ Software (Perkin Elmer Life Sciences). […]

[1] = rat hepatocytes (Rs458), 1 μM [^14C]-Compound 1, 1 h
[2] = rat hepatocytes (Rs458), 1 μM [^14C]-Compound 1, 8 h
[3] = rat hepatocytes (Rs458), 1 μM [^14C]-Compound 1, 24 h
[4] = rat hepatocytes Rs448, 10 μM [^14C]-2′-C-methyl guanosine, 1 h
[5] = rat hepatocytes Rs448, 10 μM [^14C]-2′-C-methyl guanosine, 4 h
[6] = rat hepatocytes Rs448, 10 μM [^14C]-2′-C-methyl guanosine, 8 h
[7] = rat hepatocytes Rs448, 10 μM [^14C]-2′-C-methyl guanosine, 24 h
[8] = rat hepatocytes Rs458, 1 μM [^14C]-2′-C-methyl guanosine, 1 h
[9] = rat hepatocytes Rs458, 1 μM [^14C]-2′-C-methyl guanosine, 8 h
[10] = rat hepatocytes Rs458, 1 μM [^14C]-2′-C-methyl guanosine, 24 h
[11] = rat hepatocytes Rs458, 10 μM [^14C]-2′-C-methyl guanosine, 1 h
[12] = rat hepatocytes Rs458, 10 μM [^14C]-2′-C-methyl guanosine, 4 h
[13] = rat hepatocytes Rs458, 10 μM [^14C]-2′-C-methyl guanosine, 8 h
[14] = rat hepatocytes Rs458, 10 μM [^14C]-2′-C-methyl guanosine, 24 h

## C[C@@]1(O)[C@H](O)[C@@H](COP(=O)(O)OP(=O)(O)O)O[C@H]1n1cnc2c(=O)[nH]c(N)nc21 [Compound 6, [(2R)-2-methyl-β-D-ribofuranosyl]guanine 5′-diphosphate]
Rat hepatocytes (Rs448, Rs458), 10 μM [^14C]-Compound 1, 1 h, listed as Compd 6
  metabolites observed in cellular extracts (% of total radioactivity): 11.4% and 12.3%
Rat hepatocytes (Rs448, Rs458), 10 μM [^14C]-Compound 1, 4 h, listed as Compd 6
  metabolites observed in cellular extracts (% of total radioactivity): 13.4% and 16.7%
Rat hepatocytes (Rs448, Rs458), 10 μM [^14C]-Compound 1, 8 h, listed as Compd 6
  metabolites observed in cellular extracts (% of total radioactivity): 12.7% and 16.8%
Rat hepatocytes (Rs448, Rs458), 10 μM [^14C]-Compound 1, 24 h, listed as Compd 6
  metabolites observed in cellular extracts (% of total radioactivity): 15.2% and 14.6%
Rat hepatocytes (Rs458), 1 μM [^14C]-Compound 1, 0 h
  2′-C-methyl guanosine nucleotide levels in cellular extracts: BLD (BLD = below limit of detection (0.02 pmol/million cells))
[1]
  2′-C-methyl guanosine nucleotide levels in cellular extracts: 20.0 pmol/million cells
  metabolites observed in cellular extracts (% of total radioactivity): 13.0%
[2]
  2′-C-methyl guanosine nucleotide levels in cellular extracts: 41.2 pmol/million cells
  metabolites observed in cellular extracts (% of total radioactivity): 13.27%
[3]
  2′-C-methyl guanosine nucleotide levels in cellular extracts: 30.0 pmol/million cells
  metabolites observed in cellular extracts (% of total radioactivity): 18.1%
Rat hepatocytes Rs448, 10 μM [^14C]-2′-C-methyl guanosine, 0 h
  2′-C-methyl guanosine nucleotide levels in cellular extracts: 0 pmol/million cells
[4]
  2′-C-methyl guanosine nucleotide levels in cellular extracts: 7.00 pmol/million cells
  Major metabolites observed in cellular extracts (% of total radioactivity): 1.24 % of total radioactivity
[5]
  2′-C-methyl guanosine nucleotide levels in cellular extracts: 28.0 pmol/million cells
  Major metabolites observed in cellular extracts (% of total radioactivity): 3.54 % of total radioactivity
[6]
  2′-C-methyl guanosine nucleotide levels in cellular extracts: 47.0 pmol/million cells
  Major metabolites observed in cellular extracts (% of total radioactivity): 4.76 % of total radioactivity
[7]
  2′-C-methyl guanosine nucleotide levels in cellular extracts: 101 pmol/million cells
  Major metabolites observed in cellular extracts (% of total radioactivity): 10.4 % of total radioactivity
Rat hepatocytes Rs448, 10 μM [^14C]-Compound 1, 0 h
  2′-C-methyl guanosine nucleotide levels in cellular extracts: 0 pmol/million cells
Rat hepatocytes Rs448, 10 μM [^14C]-Compound 1, 1 h
  2′-C-methyl guanosine nucleotide levels in cellular extracts: 112 pmol/million cells
Rat hepatocytes Rs448, 10 μM [^14C]-Compound 1, 4 h
  2′-C-methyl guanosine nucleotide levels in cellular extracts: 269 pmol/million cells
Rat hepatocytes Rs448, 10 μM [^14C]-Compound 1, 8 h
  2′-C-methyl guanosine nucleotide levels in cellular extracts: 311 pmol/million cells
Rat hepatocytes Rs448, 10 μM [^14C]-Compound 1, 24 h
  2′-C-methyl guanosine nucleotide levels in cellular extracts: 215 pmol/million cells
Rat hepatocytes Rs458, 1 μM [^14C]-2′-C-methyl guanosine, 0 h
  2′-C-methyl guanosine nucleotide levels in cellular extracts: BLD (BLD = below limit of detection (0.02 pmol/million cells))
[8]
  2′-C-methyl guanosine nucleotide levels in cellular extracts: 0.85 pmol/million cells
  Major metabolites observed in cellular extracts (% of total radioactivity): 1.50 % of total radioactivity
[9]
  2′-C-methyl guanosine nucleotide levels in cellular extracts: 4.00 pmol/million cells
  Major metabolites observed in cellular extracts (% of total radioactivity): 5.14 % of total radioactivity
[10]
  2′-C-methyl guanosine nucleotide levels in cellular extracts: 8.00 pmol/million cells
  Major metabolites observed in cellular extracts (% of total radioactivity): 9.88 % of total radioactivity
Rat hepatocytes Rs458, 10 μM [^14C]-2′-C-methyl guanosine, 0 h
  2′-C-methyl guanosine nucleotide levels in cellular extracts: 0 pmol/million cells
[11]
  2′-C-methyl guanosine nucleotide levels in cellular extracts: 5.60 pmol/million cells
  Major metabolites observed in cellular extracts (% of total radioactivity): 1.08 % of total radioactivity
[12]
  2′-C-methyl guanosine nucleotide levels in cellular extracts: 28.0 pmol/million cells
  Major metabolites observed in cellular extracts (% of total radioactivity): 4.01 % of total radioactivity
[13]
  2′-C-methyl guanosine nucleotide levels in cellular extracts: 48.0 pmol/million cells
  Major metabolites observed in cellular extracts (% of total radioactivity): 5.42 % of total radioactivity
[14]
  2′-C-methyl guanosine nucleotide levels in cellular extracts: 91.0 pmol/million cells
  Major metabolites observed in cellular extracts (% of total radioactivity): 9.65 % of total radioactivity
Rat hepatocytes Rs458, 10 μM [^14C]-Compound 1, 0 h
  2′-C-methyl guanosine nucleotide levels in cellular extracts: 0 pmol/million cells
Rat hepatocytes Rs458, 10 μM [^14C]-Compound 1, 1 h
  2′-C-methyl guanosine nucleotide levels in cellular extracts: 129 pmol/million cells
Rat hepatocytes Rs458, 10 μM [^14C]-Compound 1, 4 h
  2′-C-methyl guanosine nucleotide levels in cellular extracts: 326 pmol/million cells
Rat hepatocytes Rs458, 10 μM [^14C]-Compound 1, 8 h
  2′-C-methyl guanosine nucleotide levels in cellular extracts: 375 pmol/million cells
Rat hepatocytes Rs458, 10 μM [^14C]-Compound 1, 24 h
  2′-C-methyl guanosine nucleotide levels in cellular extracts: 207 pmol/million cells
